# Data as given in patent publication US4147861A, “1N-(α-Hydroxy-ω-aminoalkanoyl)- 6'N-methyl-3',4'-dideoxykanamycin B and the production thereof” (Zaidan Hojin Biseibutsu Kagaku Kenkyu Kai, priority 1977, dated 1979).
# Tests used:
# Staphylococcus aureus = assay: Minimum inhibitory concentration, serial dilution method on nutrient agar; assay type: cell-based; settings: 37° C., 18 hours, read-out: Minimum Inhibitory Concentrations
# [1] = test system: Staphylococcus aureus FDA 209P; assay: as above; assay type: cell-based; settings: FDA209P, 37° C., 18 hours, read-out: Minimum Inhibitory Concentrations
# [2] = test system: Staphylococcus aureus Terajima; assay: as above; assay type: cell-based; settings: 37° C., 18 hours, read-out: Minimum Inhibitory Concentrations
# Sarcina lutea PCI 1001 = assay: as above; assay type: cell-based; settings: Micrococcus luteus, PCI1001, 18 h, read-out: Minimum Inhibitory Concentrations
# Bacillus anthracis = assay: microbe, parasite or virus in culture; assay type: cell-based; settings: 18 h, read-out: Minimum Inhibitory Concentrations
# [3] = test system: Bacillus subtilis PCI 219; assay: Minimum inhibitory concentration, serial dilution method on nutrient agar; assay type: cell-based; settings: PCI219, 37° C., 18 hours, read-out: Minimum Inhibitory Concentrations
# [4] = test system: Bacillus subtilis NRRL B-558; assay: as above; assay type: cell-based; settings: NRRLB558, 37° C., 18 hours, read-out: Minimum Inhibitory Concentrations
# [5] = test system: Bacillus cereus ATCC 10702; assay: as above; assay type: cell-based; settings: ATCC10702; Bacillus cereus ATCC 10702; 37° C., 18 hours; read-out: Minimum Inhibitory Concentrations
# [6] = test system: Corynebacterium bovis 1810; assay: as above; assay type: cell-based; settings: Corynebacterium bovis 1810; 37° C., 18 hours; read-out: Minimum Inhibitory Concentrations
# [7] = test system: Mycobacterium smegmatis ATCC 607; assay: as above; assay type: cell-based; settings: Mycolicibacterium smegmatis, ATCC607, 37° C., 18 hours, read-out: Minimum Inhibitory Concentrations
# [8] = test system: Shigella dysenteriae JS 11910; assay: as above; assay type: cell-based; settings: JS11910, 18 h, read-out: Minimum Inhibitory Concentrations
# Salmonella typhosa T-63 = assay: as above; assay type: cell-based; settings: Salmonella enterica, 18 h, read-out: Minimum Inhibitory Concentrations
# [9] = test system: Salmonella enteritidis 1891; assay: as above; assay type: cell-based; settings: Salmonella enterica; Salmonella enteritidis 1891; 37° C., 18 hours; read-out: Minimum Inhibitory Concentrations
# Proteus vulgaris OX 19 = assay: as above; assay type: cell-based; settings: OX19; Proteus vulgaris OX 19; 37° C., 18 hours; read-out: Minimum Inhibitory Concentrations
# [10] = test system: Klebsiella pneumoniae PCT 602; assay: as above; assay type: cell-based; settings: PCT602; Klebsiella pneumoniae PCT 602; 37° C., 18 hours; read-out: Minimum Inhibitory Concentrations
# Escherichia coli NIHJ = assay: as above; assay type: cell-based; settings: Escherichia coli NIHJ; 37° C., 18 hours; read-out: Minimum Inhibitory Concentrations
# Escherichia coli K-12 = assay: as above; assay type: cell-based; settings: K12; Escherichia coli K-12; 37° C., 18 hours; read-out: Minimum Inhibitory Concentrations
# Escherichia coli K-12 R5 = assay: as above; assay type: cell-based; settings: K12R5, 18 h, read-out: Minimum Inhibitory Concentrations
# [11] = test system: Escherichia coli K-12 ML 1629; assay: as above; assay type: cell-based; settings: K12ML1629; Escherichia coli K-12 ML 1629; 37° C., 18 hours; read-out: Minimum Inhibitory Concentrations
# [12] = test system: Escherichia coli K-12 ML 1410; assay: as above; assay type: cell-based; settings: K12ML1410; Escherichia coli K-12 ML 1410; 37° C., 18 hours; read-out: Minimum Inhibitory Concentrations
# [13] = test system: Escherichia coli K-12 ML 1410 R81; assay: as above; assay type: cell-based; settings: 18 h, read-out: Minimum Inhibitory Concentrations
# [14] = test system: Escherichia coli LA290 R55; assay: as above; assay type: cell-based; settings: LA290R55, 18 h, read-out: Minimum Inhibitory Concentrations
# [15] = test system: Escherichia coli LA290 R56; assay: as above; assay type: cell-based; settings: LA290R56, 18 h, read-out: Minimum Inhibitory Concentrations
# [16] = test system: Escherichia coli LA290 R64; assay: as above; assay type: cell-based; settings: LA290R64, 18 h, read-out: Minimum Inhibitory Concentrations
# Escherichia coli W677 = assay: as above; assay type: cell-based; settings: Escherichia coli W677; 37° C., 18 hours; read-out: Minimum Inhibitory Concentrations
# [17] = test system: Escherichia coli JR66/W677; assay: as above; assay type: cell-based; settings: Escherichia coli, JR66/W677, 18 h, read-out: Minimum Inhibitory Concentrations
# [18] = test system: Escherichia coli K-12 ML 1630; assay: as above; assay type: cell-based; settings: K12ML1630, 37° C., 18 hours, read-out: Minimum Inhibitory Concentrations
# Method: (§1) The minimum inhibitory concentrations (mcg./ml.) of 1N-(DL-isoseryl)-6'N-methyl-3',4'-dideoxykanamycin B (abbreviated as DL-IS-MDKB); 1N-(L-isoseryl)-6'N-methyl-3',4'-dideoxykanamycin B (abbreviated as L-IS-MDKB); 1N-(L-4-amino-[…])-6'N-methyl-3',4'-dideoxykanamycin B (abbreviated as AHB-MDKB); and 1N-(L-5-amino-2-hydroxyvaleryl)-6'N-methyl-3',4'-dideoxykanamycin B (abbreviated as AHV-MDBK) against various organisms were determined according to serial dilution method using nutrient agar medium at 37° C., the readings being made after 18 hours incubation. For the comparison purpose, the minimum inhibitory concentrations (mcg./ml.) of 1 N-(L-4-amino-2-hydroxybutyryl)-kanamycin A (abbreviated as AHB-KMA) and 1N-([…])-kanamycin B (abbreviated as AHB-KMB) which are known from U.S. Pat. No. 3,781,268 were also determined by the same manner as stated above.
# [19] = test system: Klebsiella pneumoniae 22 No. 3038; assay: as above; assay type: cell-based; settings: 37° C., 18 hours, read-out: Minimum Inhibitory Concentrations
# Method: as §1
# [20] = test system: Pseudomonas aeruginosa A3; assay: as above; assay type: cell-based; settings: 37° C., 18 hours, read-out: Minimum Inhibitory Concentrations
# Method: as §1
# [21] = test system: Shigella flexneri 4b JS 11811; assay: as above; assay type: cell-based; settings: 4BJS11811, 37° C., 18 hours, read-out: Minimum Inhibitory Concentrations
# Method: as §1
# Shigella sonnei JS 11746 = assay: as above; assay type: cell-based; settings: JS11746, 37° C., 18 hours, read-out: Minimum Inhibitory Concentrations
# Method: as §1
# [22] = test system: Pseudomonas aeruginosa No. 12; assay: as above; assay type: cell-based; settings: Pseudomonas aeruginosa, NO.12, 18 h, read-out: Minimum Inhibitory Concentrations
# [23] = test system: Pseudomonas aeruginosa TI-13; assay: as above; assay type: cell-based; settings: Pseudomonas aeruginosa, TI13, 18 h, read-out: Minimum Inhibitory Concentrations
# [24] = test system: Pseudomonas aeruginosa GN315; assay: as above; assay type: cell-based; settings: Pseudomonas aeruginosa GN315; 37° C., 18 hours; read-out: Minimum Inhibitory Concentrations
# [25] = test system: Pseudomonas aeruginosa 99; assay: as above; assay type: cell-based; settings: 37° C., 18 hours, read-out: Minimum Inhibitory Concentrations
# [26] = test system: kanamycin-resistant bacteria; settings: prior art statement; cited from earlier work
smiles,measurement,setting,value
"NCC[C@H](O)C(=O)N[C@@H]1C[C@H](N)[C@@H](O[C@H]2O[C@H](CN)[C@@H](O)[C@H](O)[C@H]2O)[C@H](O)[C@H]1O[C@H]1O[C@H](CO)[C@@H](O)[C@H](N)[C@H]1O [AHB-KMA, 1 N-(L-4-amino-2-hydroxybutyryl)-kanamycin A, reference compound]",MIC,Staphylococcus aureus,< 0.2 µg/mL
same,MIC,[1],0.39 µg/mL
same,MIC,[2],< 0.2 µg/mL
same,MIC,Sarcina lutea PCI 1001,3.13 µg/mL
same,MIC,Bacillus anthracis,< 0.2 µg/mL
same,MIC,[3],< 0.2 µg/mL
same,MIC,[4],< 0.2 µg/mL
same,MIC,[5],0.78 µg/mL
same,MIC,[6],0.78 µg/mL
same,MIC,[7],< 0.2 µg/mL
same,MIC,[8],3.13 µg/mL
same,MIC,Salmonella typhosa T-63,0.39 µg/mL
same,MIC,[9],0.78 µg/mL
same,MIC,Proteus vulgaris OX 19,0.78 µg/mL
same,MIC,[10],0.39 µg/mL
same,MIC,Escherichia coli NIHJ,0.78 µg/mL
same,MIC,Escherichia coli K-12,0.78 µg/mL
same,MIC,Escherichia coli K-12 R5,0.39 µg/mL
same,MIC,[11],0.78 µg/mL
same,MIC,[12],0.78 µg/mL
same,MIC,[13],1.56 µg/mL
same,MIC,[14],0.78 µg/mL
same,MIC,[15],0.39 µg/mL
same,MIC,[16],0.39 µg/mL
same,MIC,Escherichia coli W677,< 0.2 µg/mL
same,MIC,[17],1.56 µg/mL
same,MIC,[18],0.78 µg/mL
same,MIC,[19],1.56 µg/mL
same,MIC,[20],3.13 µg/mL
same,MIC,[21],3.13 µg/mL
same,MIC,Shigella sonnei JS 11746,1.56 µg/mL
same,MIC,[22],3.13 µg/mL
same,MIC,[23],3.13 µg/mL
same,MIC,[24],100 µg/mL
same,MIC,[25],6.25 µg/mL
same,activity against kanamycin-resistant bacteria,[26],active against a large number of kanamycin-resistant bacteria
